Patent US6340754B1, “Phosphorus containing cyclic nucleotides” (priority 1998, dated 2002)

Tests used:
[1] = test system: cell free culture supernatant (fraction A) of Serratia marcescens, cyclic nucleotide phosphodiesterase activity; assay: Activity assay, fraction A: cell free culture supernatant, HPLC detection of substrate and products; format: biochemical, Serratia marcescens strain DSM 30121; conditions: 40 μl of 100 mM substrate in 400 μl, overnight at 30° C.
Description: (§1) The substrates used for enzyme activity assays are dissolved in phosphate buffer pH 7.0 to the required concentration.
One single colony is subsequently used to inoculate 25 ml of LB Broth contained in a 100-ml shake-flask. This culture is then incubated at 30° C. and shaken at 200 rpm (Infors HT Shaker, Infors AG, Bottmingen, Switzerland) for another 48 hrs.
(§2) After incubation, the whole volume of the culture is centrifuged at 9000 rpm for 20 minutes at ca. 4° C. (DuPont Instruments Sorvall® RC-5B Refrigerated Superspeed Centrifuge, Digitana AG, Horgen, Switzerland; rotor SS-34).
The supernatant (fraction A) is recuperated and 360 μl are placed in an Eppendorf tube. Fourty μl of a 100 mM solution of substrate are then added to the reaction mixture and incubated overnight at 30° C.
After 5 minutes of extraction at room temperature, the tubes are centrifugated at 14 000 rpm for 5 minutes (Bench Centrifuge Biofuge 15) and the supernatant transfered to HPLC tubes for analysis.
Blanks are made with the substrate solution being replaced by an equivalent volume of phosphate buffer pH 7.0.
The activity is qualitatively determined by observing the appearance of the substrate and product(s) of the activity assay as peaks on a HPLC profile. […] A peak showing on the assay's chromatogramme at the same or at a very close retention time as that of a standard, and moreover absent from the blank, is considered to be the same compound as the standard with a minimum risk of error.
The solvent system is composed of 10 mm phosphate buffer, pH 4.0 (solvent A) and Methanol (solvent B) and two different gradients are applied depending on whether natural or modified nucleotides are used for the assay:
The HPLC profiles obtained for the activity assays are compared with profiles of standards in order to identify the peaks.

[2] = test system: Intact cells (fraction B) of Serratia marcescens; assay: Activity assay, fraction B: whole-cell suspension, HPLC detection of substrate and products; format: cell-based, Serratia marcescens strain DSM 30121; conditions: 10 mM substrate solution, overnight at 30° C.
Description: as §1
Serratia marcescens strain DSM 30121 is grown for 48 hrs in Petri dishes containing Luria-Bertani [LB] Agar (1% Tryptone [Merck 07213]; 0.5% Yeast Extract [Fluka 70161]; 86 mM NaCl [Fluka 71382]; 50 mM Tris-HCl, pH 7.5 [Merck 8382]; 1.5% Bacto-Agar [Difco 0140-01]) at 30° C. (Memmert Incubator, Haska AG, Bern, Switzerland). One single colony is subsequently used to inoculate 25 ml of LB Broth contained in a 100-ml shake-flask. This culture is then incubated at 30° C. and shaken at 200 rpm (Infors HT Shaker, Infors AG, Bottmingen, Switzerland) for another 48 hrs.
as §2
The pellet is resuspended in 1 ml of distilled water and 40 μl of this whole-cell suspension (fraction B) are placed in an Eppendorf tube to which 360 μl of a 10 mM solution of the substrate are added. The incubation conditions are the same as for the supernatant fraction. […]
The activity is qualitatively determined by observing the appearance of the substrate and product(s) of the activity assay as peaks on a HPLC profile. […]

Compound | hydrolysis / degradation of substrate [1] | degradation of added substrate [2]
Nc1ccn([C@@H]2O[C@@H]3COP(=O)(O)O[C@H]3[C@H]2O)c(=O)n1 [cCMP] | ca. 10% | 
O=c1[nH]cnc2c1ncn2[C@@H]1O[C@@H]2COP(=O)(O)O[C@H]2[C@H]1O [cIMP] | 85-89% | 
COCCO[C@@H]1[C@@H]2OP(=O)(O)OC[C@H]2O[C@H]1n1cnc2c(N)ncnc21 [2′MOE CAMP, 2′-O(2-Methoxyethyl)-adenosine 3′,5′-cyclic-phosphate] | about 50% | about 85%
